Source: PubChem BioAssay (NCI)
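Five compound concentrations were applied to cells in 96-well plates for 48 hours; endpoints were derived by simple linear interpolation of the resulting dose-response curve. Here, GI50 denotes the concentration required for 50% inhibition of growth. Definition used: TGI = concentration required for complete inhibition of growth.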

Columns and labels:
Assay in all cases: NCI anticancer screen, dose series, 48 h
HOP-62 NSCLC = system: HOP-62 NSCLC
OVCAR-8 ovarian = system: OVCAR-8 ovarian
ACHN renal = system: ACHN renal
K-562 leukemia = system: K-562 leukemia
MOLT-4 leukemia = system: MOLT-4 leukemia
NCI-H23 lung = system: NCI-H23 lung
EKVX NSCLC = system: EKVX NSCLC
SNB-19 CNS = system: SNB-19 CNS
UO-31 renal = system: UO-31 renal
NCI-H460 lung = system: NCI-H460 lung

Row | SMILES | GI50 (HOP-62 NSCLC) [µM] | TGI (HOP-62 NSCLC) [µM] | GI50 (OVCAR-8 ovarian) [µM] | TGI (OVCAR-8 ovarian) [µM] | GI50 (ACHN renal) [µM] | TGI (ACHN renal) [µM] | GI50 (K-562 leukemia) [µM] | TGI (K-562 leukemia) [µM] | GI50 (MOLT-4 leukemia) [µM] | TGI (MOLT-4 leukemia) [µM] | GI50 (NCI-H23 lung) [µM] | TGI (NCI-H23 lung) [µM] | GI50 (EKVX NSCLC) [µM] | TGI (EKVX NSCLC) [µM] | GI50 (SNB-19 CNS) [µM] | TGI (SNB-19 CNS) [µM] | GI50 (UO-31 renal) [µM] | TGI (UO-31 renal) [µM] | GI50 (NCI-H460 lung) [µM] | TGI (NCI-H460 lung) [µM]
1 | CSc1nc(SC)c2cnn(-c3ccnc4cc(Cl)ccc34)c2n1 | 29.1 | > 96.1 | > 56.5 | > 100 | 42 | > 86.8 | > 61 | > 100 | 42.5 | > 89.6 | 21.2 | > 54.9 | 25.9 | 70.5 | > 100 | > 100 | > 100 | > 100 | 9.36 | > 45.6
2 | CCOC(=O)c1sc(Nc2cc(Cl)ccc2Cl)nc1C |  | > 100 |  | > 100 |  | > 100 |  | > 100 |  | > 100 |  | > 100 |  | > 100 |  | > 100 |  | > 100 |  | > 100
3 | CC(=O)OC1C(COC(N)=O)OC(n2c(-c3ccc(C)cc3)cc(-c3ccccc3)c(C#N)c2=O)C(OC(C)=O)C1OC(C)=O (stereo not given) |  | > 100 |  | > 100 |  | > 100 |  | > 100 |  | > 100 |  | > 100 |  | > 100 |  | > 100 |  | > 100 |  | > 100
4 | CCN1C2=C(SC(=S)C1=C1SC(C(=O)c3ccccc3)=C(C(=O)c3ccccc3)S1)SC(=Nc1ccccc1)C2=O | 21.7 | 76.2 | 2.34 | > 67.5 | 37.3 | > 100 | 4.91 | > 100 | 0.625 | > 22.2 | 5.43 | > 100 | 80.4 | > 100 | 53.4 | > 100 | 5.9 | > 100 | 27.8 | > 100
5 | CC(C)c1ccc2c(c1)CCC1C(C)(CN)CCCC21C (stereo not given) |  | 3.14 |  | 3.4 |  | 3.09 |  | 3.01 |  | 3.61 |  | 3.36 |  | 3.4 |  | 2.96 |  | 2.66 |  | 2.6
6 | O=C(NCCCNc1cc(-c2cn(-c3ccccc3)nc2-c2cccc(O)c2)ccn1)c1ccc(F)cc1 | 2.64 | 10.8 | 4.01 | 21.2 | 3.36 | 73.6 | 1.93 | > 100 | 2.36 | 14 | 2.81 | 14.8 | 3.7 | 69.1 | 4.63 | 29.5 | 1.78 | 10.2 | 3.14 | 11.5
7 | Clc1ccc(Nc2ncnc3ccccc23)cc1 | > 100 | > 100 | 59.2 | > 100 | 11.1 | 71.7 | 28 | > 100 | 20.6 | 59.5 | 74.6 | > 100 | 10.1 | > 100 | > 100 | > 100 | 61 | > 100 | 43.7 | > 100
